Patent US20020137929A1, “1 - (3-heterocyclylphenyl) isothiourea, -isourea, -guanidine and -amidine herbicidal agents” (Intellectual Property Department, BASF Aktiengesellschaft, priority 1998, published 2002)

Tests used:
[1] = tested on: CHEAL (Lambsquarters, Common); test: Postemergence herbicidal evaluation; type: in vivo, Chenopodium album; conditions: postemergence
Outline: (§1)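 Scores (0–9) reflect plant stand, vigor, malformation, size, chlorosis and general appearance relative to control, read 4 to 5 weeks after treatment and averaged where tests were repeated. Application: about 0.0156–0.500 kg/ha sprayed at 40 psi onto two-week seedlings.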

CASOB (Sicklepod) [2] = test: Preemergence herbicidal evaluation; type: in vivo, Cassia obtusifolia; conditions: rated 4-5 weeks after treatment
Outline: (§2)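 Sown cups got a single aqueous acetone spray of test compound (roughly 0.0156–0.500 kg/ha) before seedlings emerged. Evaluation, 4–5 weeks on, used a 0–9 visual scale covering plant stand, vigor, size, malformation, chlorosis and general appearance compared with controls.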

CASOB (Sicklepod) [3] = test: Postemergence herbicidal evaluation; type: in vivo, Cassia obtusifolia; conditions: postemergence
Outline: as §1

ORYSAT (Rice, Tebonnet) = test: Postemergence herbicidal evaluation; type: in vivo, Oryza sativa, (L.) Tebonnet; conditions: postemergence
Outline: as §1

CYPIR (Rice Flatsedge) = test: Preemergence weed control under flooded paddy conditions; type: in vivo, Cyperus iria; conditions: rated 3-4 weeks after treatment
Outline: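 First, seeds or propagules go into the top 0.5 cm of silt loam; next, water is held 1.5 to 3 cm over the soil; then compound (50/50 acetone/water) is pipetted into it at about 0.0313 to 0.500 kg/ha; finally plants are rated visually 0-9 after three to four weeks.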

ECHCG (Barnyardgrass) = test: Postemergence herbicidal evaluation; type: in vivo, Echinochloa crus-galli; conditions: postemergence
Outline: as §1

SETVI (Foxtail, Green) = test: Postemergence herbicidal evaluation; type: in vivo, Setaria viridis; conditions: postemergence
Outline: as §1

CYPSE (Flatsedge) [4] = test: Postemergence weed control under flooded paddy conditions; type: in vivo, Cyperus serotinus; conditions: postemergence weeds, 3-4 weeks after treatment
Outline: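 Flood-water application, about 0.0313–0.500 kg/ha a.i. in aqueous/acetone 50/50 v/v; water depth 1.5–3 cm throughout. Weeds 3–5 cm, rice 1.5–2.5 leaf. Greenhouse; 0–9 visual rating vs control at 3–4 wk.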

CYPSE (Flatsedge) [5] = test: Preemergence weed control under flooded paddy conditions; type: in vivo, Cyperus serotinus; conditions: rated 3-4 weeks after treatment
Outline: (§3)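 Seeds or propagules sown in top 0.5 cm of silt loam soil, flooded 1.5 to 3 cm above surface throughout. Compound in 50/50 v/v aqueous/acetone pipetted into flood water at about 0.0313 to 0.500 kg/ha. Visual 0-9 rating versus control after three to four weeks in greenhouse.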

AMBEL (Ragweed, Common) = test: Postemergence herbicidal evaluation; type: in vivo, Ambrosia artemisifolia; conditions: postemergence
Outline: as §1

GALAP (Galium) = test: Postemergence herbicidal evaluation; type: in vivo, Galium aparine; conditions: postemergence
Outline: as §1

ZEAMX (Corn, Field) = test: Preemergence herbicidal evaluation; type: in vivo, Zea mays; conditions: rated 4-5 weeks after treatment
Outline: as §2

[6] = tested on: SAGPY (Arrowhead (Pygmaea)); test: Preemergence weed control under flooded paddy conditions; type: in vivo, Sagittaria pygmaea; conditions: rated 3-4 weeks after treatment
Outline: as §3

Structure (SMILES): CCC1SC(=Nc2cc(N3C(=O)C4=C(CCCC4)C3=O)c(F)cc2Cl)N(C)C1=O (stereo not shown) [Compound 6, N-{4-chloro-5-[(5-ethyl-3-methyl-4-oxo-2-thiazolidinylidene)amino]-2-fluorophenyl}-1-cyclohexene-1,2-dicarboximide]
- CHEAL herbicidal rating ([1]; rate 0.0157 kg/ha): 0.0
- CHEAL herbicidal rating ([1]; rate 0.0313 kg/ha): 0.0
- CHEAL herbicidal rating ([1]; rate 0.0625 kg/ha): 2.0
- CHEAL herbicidal rating ([1]; rate 0.2500 kg/ha): 6.0
- CHEAL herbicidal rating ([1]; rate 0.5000 kg/ha): 9.0
- CASOB preemergence herbicidal rating (CASOB (Sicklepod) [2]; rate 0.1250 kg/ha): 0.0
- CASOB preemergence herbicidal rating (CASOB (Sicklepod) [2]; rate 0.2500 kg/ha): 0.0
- CASOB preemergence herbicidal rating (CASOB (Sicklepod) [2]; rate 0.5000 kg/ha): 0.0
- CASOB herbicidal rating (CASOB (Sicklepod) [3]; rate 0.0157 kg/ha): 0.0
- CASOB herbicidal rating (CASOB (Sicklepod) [3]; rate 0.0313 kg/ha): 0.0
- CASOB herbicidal rating (CASOB (Sicklepod) [3]; rate 0.0625 kg/ha): 0.0
- CASOB herbicidal rating (CASOB (Sicklepod) [3]; rate 0.1250 kg/ha): 0.0
- CASOB herbicidal rating (CASOB (Sicklepod) [3]; rate 0.2500 kg/ha): 2.0
- CASOB herbicidal rating (CASOB (Sicklepod) [3]; rate 0.5000 kg/ha): 6.0
- ORYSAT herbicidal rating (ORYSAT (Rice, Tebonnet); rate 0.0157 kg/ha): 2.5
- ORYSAT herbicidal rating (ORYSAT (Rice, Tebonnet); rate 0.0313 kg/ha): 2.5
- ORYSAT herbicidal rating (ORYSAT (Rice, Tebonnet); rate 0.0625 kg/ha): 2.5
- ORYSAT herbicidal rating (ORYSAT (Rice, Tebonnet); rate 0.1250 kg/ha): 2.5
- ORYSAT herbicidal rating (ORYSAT (Rice, Tebonnet); rate 0.2500 kg/ha): 2.5
- ORYSAT herbicidal rating (ORYSAT (Rice, Tebonnet); rate 0.5000 kg/ha): 2.5
- Herbicidal rating CYPIR (CYPIR (Rice Flatsedge); 0.0313 kg/ha): 0.0
- Herbicidal rating CYPIR (CYPIR (Rice Flatsedge); 0.0625 kg/ha): 2.0
- Herbicidal rating CYPIR (CYPIR (Rice Flatsedge); 0.1250 kg/ha): 4.0
- Herbicidal rating CYPIR (CYPIR (Rice Flatsedge); 0.2500 kg/ha): 6.0
- Herbicidal rating CYPIR (CYPIR (Rice Flatsedge); 0.5000 kg/ha): 7.0
- ECHCG herbicidal rating (ECHCG (Barnyardgrass); rate 0.0157 kg/ha): 0.0
- ECHCG herbicidal rating (ECHCG (Barnyardgrass); rate 0.0313 kg/ha): 0.0
- ECHCG herbicidal rating (ECHCG (Barnyardgrass); rate 0.0625 kg/ha): 0.0
- ECHCG herbicidal rating (ECHCG (Barnyardgrass); rate 0.1250 kg/ha): 0.0
- ECHCG herbicidal rating (ECHCG (Barnyardgrass); rate 0.2500 kg/ha): 1.0
- ECHCG herbicidal rating (ECHCG (Barnyardgrass); rate 0.5000 kg/ha): 2.0
- SETVI herbicidal rating (SETVI (Foxtail, Green); rate 0.0157 kg/ha): 0.0
- SETVI herbicidal rating (SETVI (Foxtail, Green); rate 0.0313 kg/ha): 0.0
- SETVI herbicidal rating (SETVI (Foxtail, Green); rate 0.0625 kg/ha): 0.0
- SETVI herbicidal rating (SETVI (Foxtail, Green); rate 0.1250 kg/ha): 2.0
- SETVI herbicidal rating (SETVI (Foxtail, Green); rate 0.2500 kg/ha): 2.0
- SETVI herbicidal rating (SETVI (Foxtail, Green); rate 0.5000 kg/ha): 2.0
- Herbicidal rating CYPSE (CYPSE (Flatsedge) [4]; rate 0.0313 kg/ha): 0.0
- Herbicidal rating CYPSE (CYPSE (Flatsedge) [4]; rate 0.0625 kg/ha): 0.0
- Herbicidal rating CYPSE (CYPSE (Flatsedge) [4]; rate 0.1250 kg/ha): 0.0
- Herbicidal rating CYPSE (CYPSE (Flatsedge) [4]; rate 0.2500 kg/ha): 0.0
- Herbicidal rating CYPSE (CYPSE (Flatsedge) [4]; rate 0.5000 kg/ha): 0.0
- Herbicidal rating CYPSE (CYPSE (Flatsedge) [5]; 0.0313 kg/ha): 0.0
- Herbicidal rating CYPSE (CYPSE (Flatsedge) [5]; 0.0625 kg/ha): 0.0
- Herbicidal rating CYPSE (CYPSE (Flatsedge) [5]; 0.1250 kg/ha): 0.0
- Herbicidal rating CYPSE (CYPSE (Flatsedge) [5]; 0.2500 kg/ha): 0.0
- Herbicidal rating CYPSE (CYPSE (Flatsedge) [5]; 0.5000 kg/ha): 0.0
- AMBEL herbicidal rating (AMBEL (Ragweed, Common); rate 0.0157 kg/ha): 2.0
- AMBEL herbicidal rating (AMBEL (Ragweed, Common); rate 0.0313 kg/ha): 2.0
- AMBEL herbicidal rating (AMBEL (Ragweed, Common); rate 0.0625 kg/ha): 2.0
- AMBEL herbicidal rating (AMBEL (Ragweed, Common); rate 0.1250 kg/ha): 4.0
- AMBEL herbicidal rating (AMBEL (Ragweed, Common); rate 0.2500 kg/ha): 4.0
- AMBEL herbicidal rating (AMBEL (Ragweed, Common); rate 0.5000 kg/ha): 4.0
- GALAP herbicidal rating (GALAP (Galium); rate 0.0157 kg/ha): 0.0
- GALAP herbicidal rating (GALAP (Galium); rate 0.0313 kg/ha): 0.0
- GALAP herbicidal rating (GALAP (Galium); rate 0.0625 kg/ha): 0.0
- GALAP herbicidal rating (GALAP (Galium); rate 0.1250 kg/ha): 2.0
- GALAP herbicidal rating (GALAP (Galium); rate 0.2500 kg/ha): 7.0
- GALAP herbicidal rating (GALAP (Galium); rate 0.5000 kg/ha): 9.0
- ZEAMX preemergence herbicidal rating (ZEAMX (Corn, Field); rate 0.1250 kg/ha): 0.0
- ZEAMX preemergence herbicidal rating (ZEAMX (Corn, Field); rate 0.2500 kg/ha): 0.0
- ZEAMX preemergence herbicidal rating (ZEAMX (Corn, Field); rate 0.5000 kg/ha): 0.0
- Herbicidal rating SAGPY ([6]; 0.0313 kg/ha): 0.0
- Herbicidal rating SAGPY ([6]; 0.0625 kg/ha): 0.0
- Herbicidal rating SAGPY ([6]; 0.1250 kg/ha): 0.0
- Herbicidal rating SAGPY ([6]; 0.2500 kg/ha): 0.0
- Herbicidal rating SAGPY ([6]; 0.5000 kg/ha): 0.0
